Source: PubChem BioAssay (NCI)
Values joined by “and” are separate entries in the source; they are usually repeats but may differ in a detail not shown here. Equal values may be shown once.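 Exposure lasted 48 hours, with cells grown in 96-well plates and compounds tested at five concentrations. GI50 is the concentration that inhibits growth by half. Definition used: TGI = concentration required for complete inhibition of growth.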

Key:
Test in all cases: NCI anticancer screen, dose series, 48 h
786-0 renal = test system: 786-0 renal
A549 NSCLC = test system: A549 NSCLC
HCT-116 colon = test system: HCT-116 colon
HOP-92 NSCLC = test system: HOP-92 NSCLC
NCI-H226 lung = test system: NCI-H226 lung
NCI-H522 lung = test system: NCI-H522 lung
SF-268 CNS = test system: SF-268 CNS
SK-MEL-2 melanoma = test system: SK-MEL-2 melanoma
U251 CNS = test system: U251 CNS
PC-3 prostate = test system: PC-3 prostate

Structure (SMILES) | TGI (786-0 renal) | TGI (A549 NSCLC) | TGI (HCT-116 colon) | TGI (HOP-92 NSCLC) | TGI (NCI-H226 lung) | TGI (NCI-H522 lung) | TGI (SF-268 CNS) | TGI (SK-MEL-2 melanoma) | TGI (U251 CNS) | GI50 (786-0 renal) | GI50 (A549 NSCLC) | GI50 (HOP-92 NSCLC) | GI50 (NCI-H226 lung) | GI50 (NCI-H522 lung) | GI50 (SF-268 CNS) | GI50 (SK-MEL-2 melanoma) | GI50 (HCT-116 colon) | GI50 (PC-3 prostate) | TGI (PC-3 prostate) | GI50 (U251 CNS)
C=C1c2ccccc2N(S(=O)(=O)c2ccc(C)cc2)C12CCCCC2 | > 100 µM | > 100 µM | > 100 µM | 58.5 µM | > 100 µM | > 100 µM | > 100 µM | > 100 µM | > 100 µM |  |  |  |  |  |  |  |  |  |  | 
CC(C)(C)c1cc(C(=O)O)c(C(c2ccccc2)c2ccccc2C(=O)O)c(C(=O)O)c1 (stereo not given) | > 100 µM | > 100 µM | > 100 µM |  | 76.7 µM | 5.16 µM | > 100 µM | > 100 µM | 25.4 µM |  |  |  |  |  |  |  |  |  |  | 
O=C1[C@H]2ON(c3ccccc3)C(c3cccc([N+](=O)[O-])c3)[C@H]2C(=O)N1c1ccc(Cc2ccc(N3C(=O)[C@@H]4ON(c5ccccc5)C(c5cccc([N+](=O)[O-])c5)[C@@H]4C3=O)cc2)cc1 (stereo not given in full) | > 100 µM | > 100 µM | > 100 µM |  | > 100 µM | > 100 µM | > 100 µM | > 100 µM | > 100 µM |  |  |  |  |  |  |  |  |  |  | 
O=C1Cc2ccccc2CCc2ccccc21 | > 100 µM | > 100 µM | > 100 µM | > 100 µM | > 100 µM | > 100 µM | > 100 µM | > 100 µM | > 100 µM |  |  |  |  |  |  |  |  |  |  | 
O=C(NOC(=O)c1ccc([N+](=O)[O-])cc1)c1ccc(Cl)cc1 | > 100 µM | > 100 µM | > 100 µM | > 100 µM |  | 82.2 µM | > 100 µM | > 100 µM | > 100 µM |  |  |  |  |  |  |  |  |  |  | 
COC(=O)Cc1cc(=O)oc2c1C(=O)CCC2 | > 100 µM | > 100 µM | > 100 µM | > 100 µM | > 100 µM | > 100 µM | > 100 µM | > 100 µM | > 100 µM |  |  |  |  |  |  |  |  |  |  | 
COc1cc(-c2nn3c(=O)n(-c4ccc(Cl)cc4)c(=O)nc3s2)cc(OC)c1OC | 50 µM and 41.4 µM | > 100 µM | > 100 µM | 50 µM and 59.7 µM | > 100 µM | > 100 µM | > 100 µM | > 100 µM | > 69 µM | 17.4 µM | > 50 µM | 44.4 µM | > 50 µM | > 50 µM | 33.1 µM | > 50 µM |  |  |  | 
O=C1OC(c2ccc(Cl)c3ccccc23)c2ccccc21 (stereo not given) | > 100 µM | > 100 µM | > 100 µM | > 100 µM |  | > 100 µM | > 100 µM | > 100 µM | > 100 µM |  |  |  |  |  |  |  |  |  |  | 
CCCCCCCCCCCCCCCCCCNC(=O)[C@H]1CSC(c2ccc(F)c(OC)c2)N1 (stereo not given in full) | 1.91 µM |  | 1.64 µM | 4.61 µM | 1.58 µM |  | 1.84 µM | 1.67 µM | 1.6 µM | 1.01 µM |  | 1.66 µM | 0.773 µM |  | 0.908 µM | 0.887 µM | 0.835 µM | 1.55 µM | 12 µM | 0.866 µM
COc1cc(/C=C2/C(=O)N(C(=O)c3ccccc3O)N=C2C)ccc1O | > 100 µM | > 100 µM | > 100 µM | > 100 µM | 31.2 µM |  | > 100 µM | > 100 µM | > 100 µM |  |  |  |  |  |  |  |  |  | > 100 µM | 
C(/C=C/N1CCCC1)=C\c1nc(N2CCCC2)c2ccccc2n1 | 30.4 µM | > 100 µM | 33.8 µM |  | 39.7 µM |  | 41.7 µM | 39.1 µM |  |  |  |  |  |  |  |  |  |  |  | 
CC12O[Te]34OC1(C)C(C)(O3)C2(C)O4 | 29.3 µM | 25.1 µM | 23.2 µM |  | 44.6 µM | 23.6 µM | 23.9 µM | 29.8 µM | 15.2 µM |  |  |  |  |  |  |  |  |  |  | 
Cc1cc(C)c2nccc(NCCCN(C)C)c2c1[N+](=O)[O-] | > 100 µM | > 100 µM | > 100 µM |  |  | 27.5 µM | 95 µM | 58.8 µM | > 100 µM |  |  |  |  |  |  |  |  |  | > 100 µM | 
O=C(O)C(O)c1ccc(F)cc1 (stereo not given) | > 100 µM | > 100 µM | > 100 µM | > 100 µM |  | > 100 µM | > 100 µM | > 100 µM | > 100 µM |  |  |  |  |  |  |  |  |  | > 100 µM | 
CN1CCN(CCCOc2ccc3ncnc(Nc4ccc(Oc5cccc(F)c5)c(Cl)c4)c3c2)CC1 | 3 µM | 3.24 µM | 2.86 µM | 2.26 µM |  | 3.14 µM | 3.14 µM | 4.04 µM | 3.29 µM | 1.61 µM | 1.56 µM | 0.907 µM |  | 1.23 µM | 1.47 µM | 1.95 µM | 1.51 µM | 1.68 µM | 3.45 µM | 1.56 µM
Nc1nc(Cl)cc(NCCCCCCNc2cc(Cl)nc(N)n2)n1 | > 100 µM | > 100 µM | > 100 µM | > 100 µM | > 100 µM | > 100 µM |  | > 100 µM | > 100 µM |  |  |  |  |  |  |  |  |  |  | 
CCOc1ccccc1NC(=O)CCC(=O)NN | > 100 µM | > 100 µM | > 100 µM | > 100 µM | > 100 µM | > 100 µM | > 100 µM | > 100 µM | > 100 µM |  |  |  |  |  |  |  |  |  |  | 
N#CC1=C(N)Oc2c(sc3c(Br)cccc23)C1c1ccc(F)cc1 (stereo not given) | 14.2 µM | 18 µM | 12.3 µM | 32.2 µM |  | 13.7 µM | 24.2 µM | 31.1 µM | 13.4 µM | 0.525 µM | 0.519 µM | 11.5 µM |  | 0.0838 µM | 1.75 µM | 0.487 µM | 0.409 µM | 0.405 µM | 18.1 µM | 0.473 µM
c1cc2ccc1C1NCCCN1CCN1CCCNC1c1ccc(cc1)C1NCCCN1CCN1CCCNC21 (stereo not given) | > 100 µM | > 100 µM | > 100 µM | > 100 µM |  | 97.9 µM | > 100 µM | > 100 µM | > 100 µM |  |  |  |  |  |  |  |  |  |  | 
O=C(O)C(CS)N=Cc1nc(-c2ccccc2)oc1O (stereo not given) | > 100 µM | > 100 µM | > 100 µM | > 100 µM | > 100 µM | > 100 µM | > 100 µM | > 100 µM | > 100 µM |  |  |  |  |  |  |  |  |  |  | 
CN1C=C(C(N)=O)C2CC(O)[C@@](NC(=O)CS(N)(=O)=O)(C(=O)O)C2C1 (stereo not given in full) | 16.4 µM | > 36.2 µM | 18.7 µM | 5.05 µM | 8.52 µM | 23.9 µM | 10.3 µM | 8.22 µM | 11 µM |  |  |  |  |  |  |  |  |  |  | 
